# Laboratory results: patent US20220105152A1, “Composition for and Method of Treating Hepatic Tissue Injury” (OHIO STATE INNOVATION FOUNDATION, priority 2019, published 2022)
# Read-outs that look alike come from different tables or passages of the source.
# Key:
# APAP-treated hepatocytes = experiment: Membrane integrity of APAP-treated hepatocytes (LDH release, fluorescent dye entry); type: cell-based; details: rhMG53 added to APAP-treated hepatocytes
# Description: (§1) We unexpectedly discovered that exogenous MG53 added to the circulatory system (blood) provides protection against hepatic tissue injury and provides therapeutic treatment of injured hepatic tissue. Addition of rhMG53 to APAP-treated hepatocytes improves membrane integrity and increases survival of the cells as evidenced by the reduced release of LDH and entry of fluorescent dyes. […] MG53 reduces MLKL phosphorylation and membrane translocation, thus leading to the […] of MLKL-mediated disintegration of the hepatocellular membrane. Through biochemical and molecular studies, we identified RIPK3 as an E3-ligase substrate for MG53. The systemically administered rhMG53 enters the injured hepatocytes to target polyubiquitination of RIPK3 for proteasome-dependent protein degradation. In this way, the intracellular action of MG53 adds defensive value to hepatocellular protection by reducing stress-induced activation of the RIPK3-MLKL death signaling.
# HpeG2 were seeded in 35 mm glass bottom dishes at a density of 1×10^4 cells/cm^2 and incubated over overnight. […] After rinsing with Tyrode's solution, the cells were mixed with FM1-43 dye. […] Dye entry into the cells was monitored continuously with fluorescence confocal microscope (Eclipse Ti-U, Nikon Corporation, Tokyo, Japan) immediately after mixing with the dye. […]
# [1] = system: APAP-induced liver injury in mg53−/− mice; experiment: APAP-induced hepatotoxicity in mg53−/− mice; type: in vivo
# Protocol: We determined, however, that the amount of endogenous MG53 provided by the body is on its own insufficient to overcome DILI. Pilot studies were conducted to explore the dose dependence of APAP-induced hepatotoxicity in mice. […] Therefore, the 350 mg/kg dose was used for the comparative studies with mg53−/− mice and their littermate wild-type controls.
# We also determined whether exogenous MG53 administered to a subject might be sufficient to prevent or reduce the severity of DILI.
# mg53−/− mice and their wild type littermates were generated, bred and genotyped as previously described (Cai, C., et al. MG53 nucleates assembly of cell membrane repair machinery. Nature cell biology 11, 56-64 (2009); Cai, C., et al. MG53 regulates membrane budding and exocytosis in muscle cells. The Journal of biological chemistry 284, 3314-3322 (2009); Cai, C., et al. Membrane repair defects in muscular dystrophy are linked to altered interaction between MG53, caveolin-3, and dysferlin. The Journal of biological chemistry 284, 15894-15902 (2009)), the entire disclosures of which are hereby incorporated by reference. To ensure data reproducibility, mouse tail samples are retained and cataloged for secondary future validation, if necessary. The mg53−/− mouse line has been previously validated.
# RIPK3 = target: T1, RIPK3 (Homo sapiens, UniProt Q9Y572); experiment: Biochemical and molecular studies of E3-ligase substrate
# T1 construct: endogenous in cells; host or cells: HepG2
# Description: as §1
# Cell lysates (800 μg protein/mL supernatant) were incubated with anti-MG53 or anti-MLKL, anti-RIPK3 antibody (1 μg/mL) for 1 hour, and protein-G agarose at 4° C. for 12 hours. The immunoprecipitates were suspended in Laemmli buffer, boiled for 10 minutes, divided into 2 aliquots, electrophoresed, transferred, and subjected to immunoblotting with the anti-MLKL, anti-RIPK3, and anti-MG53 antibodies. […]
# [2] = system: primary hepatocytes from wild-type and dysferlin−/− mice; experiment: Hypoxia/reoxygenation (H/R) injury of primary hepatocytes; type: cell-based; details: for cell viability of hepatocytes: 3 hours hypoxia, 3 hours reoxygenation, FIGS. 10A, 10B
# Protocol: We also determined that the protective effect of MG53 could be extended beyond DILI to hypoxia/reoxygenation-induced (H/R-induced) liver injury. We isolated primary hepatocytes from wild-type and dysferlin−/− mice. […] With the addition of 10 μg/ml or 50 μg/ml of rhMG53, increased cell viability of hepatocytes was observed.
# (§2) Primary hepatocytes were isolated from adult mice. To isolate primary murine hepatocytes, anesthetized and heparinized mice were subjected to a midline laparotomy and cannulation of the portal vein followed by liver perfusion with an EGTA-chelating perfusion buffer (190 mg EGTA, 900 mg glucose, 10 mL of 1 M HEPES, 400 mg KCl, 305 mg Na2HPO4.12H2O, 8 g NaCl, 88 mg Na2HPO4.2H2O, and 350 mg NaHCO3 into a final volume of 1 L of sterile dH2O). After perfusion with 0.4% collagenase buffer (560 mg CaCl2).2H2O, 10 mL of 1 M HEPES, 400 mg KCl, 305 mg Na2HPO4.12H2O, 8 g NaCl, 88 mg Na2HPO4. 2H2O, 350 mg NaHCO3, and 400 mg collagenase IV into a final volume of 1 L of sterile dH2O), livers were minced, and cells were dispersed in culture medium; hepatocytes and nonparenchymal cells were separated using low-speed centrifugation and 40% Percoll density gradient centrifugation.
# Isolated mouse hepatocytes (2×10^5/well) were cultured on 24-well collagen-coated plates in William's Medium E (Gibco, Life Technologies, Foster City, Calif.) with 10% FBS at 37° C. with 5% CO2 for 4 hours. To assess the purity of primary hepatocytes, cells were subjected to BD Cytofix/Cytoperm and Fc Block (BD Biosciences) according to manufacturer's instructions. Hepatocytes were then stained with primary antibody against albumin (1 ug/1×10^6 cells; Novus Biologicals) and secondary AlexaFluor 594 antibody (1 ug/1×10^6 cells; Cellsignal) and analyzed by flow cytometry using a BD LSRFortessa (BD Bioscience)).
# [3] = system: TAA chemical-induced liver injury in C57BL/6J mice; experiment: TAA-induced liver injury in mice; type: in vivo; details: TAA 200 mg/kg, rhMG53 i.p. after injury; FIGS. 12, 13
# Protocol: (§3) We also determined the efficacy of exogenous MG53 to protection against DILI caused by other chemicals. MG53 provided protective benefits when evaluated against carbon tetrachloride (CCl4) and thioacetamide (TAA). C57BL/6J mice were injected with CCl4 or TAA to cause chemical-induced liver injury and subsequently treated with MG53 via i.p. administration (Example 7). Liver tissue was biopsied and examined under microscope. The extent of necrotic tissue formation and the level of AST expression were quantified.
# HepG2 cells = experiment: Propidium iodide staining of necrotic cell death after APAP; type: cell-based; details: rhMG53 and APAP vs APAP only; FIG. 11
# Description: We also determined that exogenous MG53 can reduce the extent of hepatic cell death following injury of hepatic tissue.
# [4] = system: CCl4 chemical-induced liver injury in C57BL/6J mice; experiment: CCl4-induced liver injury in mice; type: in vivo; details: CCl4 2 ml/kg, rhMG53 i.p. after injury; FIGS. 12, 13
# Protocol: as §3
# [5] = system: APAP-induced hepatic injury in C57BL/6J mice; details: for therapeutic effect as determined by the survival rate: FIG. 8
# MLKL = MLKL phosphorylation and membrane translocation; type: cell-based
# Description: as §1, with “In this way, the intracellular action of MG53 adds defensive value to hepatocellular protection by reducing stress-induced activation of the RIPK3-MLKL death signaling.” left out
# Crude extracts from dissected regions of the mouse liver were washed twice with ice-cold phosphate-buffered saline (PBS) and lysed in radio immunoprecipitation assay buffer (10 mM tris-HCl (pH 7.2), 150 mM NaCl, 1% NP-40, 0.5% SDS, and 0.5% deoxycholate), supplemented with a cocktail of protease inhibitors (Sigma) and phosphatase inhibitors (Thermo Scientific). […] Membranes were washed 3 times with TBS-T. Bound complexes were detected using the Odyssey Infrared Imaging System. Images were analyzed using the Odyssey Application Software to obtain the integrated intensities. […]
# mouse hepatocytes = experiment: MTT assay, APAP-injured mouse hepatocytes; type: cell-based; details: rhMG53 10 or 50 μg/ml, APAP 10 mM, 24 h, FIG. 14B
# Protocol: (§4) The data herein can be extrapolated to develop suitable protective doses for humans and large animals.
# as §2
# A hepatoma-derived HepG2 cell line was purchased from the China Cell Line Bank (Beijing China). Cells were cultured in DMEM containing 100 U/ml penicillin, 100 U/ml streptomycin, 10% FBS, and 3 mM glutamine at 37° C. with 95% air, and 5% CO2. […] Subsequently, the MTT solution was discarded, DMSO was added to each well, and absorbance was measured.
# HepG2 hepatocytes = experiment: MTT assay, APAP-injured HepG2; type: cell-based; details: rhMG53 10 or 50 μg/ml, APAP 10 mM, 24 h, FIG. 14A
# Protocol: as §4
# A hepatoma-derived HepG2 cell line was purchased from the China Cell Line Bank (Beijing China). Cells were cultured in DMEM containing 100 U/ml penicillin, 100 U/ml streptomycin, 10% FBS, and 3 mM glutamine at 37° C. with 95% air, and 5% CO2. […] Then, an MTT solution (5 mg/ml) was added to the cells, followed by incubation for another 4 h. Subsequently, the MTT solution was discarded, DMSO was added to each well, and absorbance was measured.
# [6] = system: hepatocytes of C57BL/6J mice; experiment: Confocal imaging of fluorescent-labelled rhMG53 transfer from bloodstream to liver; type: in vivo; details: FIG. 3
# Description: We determined that MG53 transfers from the circulatory system to the liver upon occurrence of DILI. We used a mouse model of acetaminophen-induced (APAP-induced) hepatic injury to determine whether MG53 can transfer from circulation to the liver to target the injured hepatocytes.
# T1 sequence (Q9Y572 whole entry): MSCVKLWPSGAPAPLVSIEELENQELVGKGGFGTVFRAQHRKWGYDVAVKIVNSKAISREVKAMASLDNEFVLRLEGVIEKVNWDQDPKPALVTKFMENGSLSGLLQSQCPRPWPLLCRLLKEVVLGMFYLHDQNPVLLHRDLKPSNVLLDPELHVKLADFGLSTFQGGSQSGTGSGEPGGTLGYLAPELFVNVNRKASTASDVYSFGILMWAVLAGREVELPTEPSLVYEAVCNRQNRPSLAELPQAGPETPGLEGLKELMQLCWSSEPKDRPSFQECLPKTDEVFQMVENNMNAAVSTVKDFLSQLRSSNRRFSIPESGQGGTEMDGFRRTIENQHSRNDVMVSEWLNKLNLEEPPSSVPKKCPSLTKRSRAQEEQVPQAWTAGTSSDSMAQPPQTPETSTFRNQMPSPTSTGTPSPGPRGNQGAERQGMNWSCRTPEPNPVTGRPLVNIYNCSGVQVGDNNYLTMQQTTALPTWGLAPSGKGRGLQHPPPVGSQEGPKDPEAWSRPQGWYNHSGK
substance,measurement,setting,value
"rhMG53: recombinant human MG53 protein (mitsugumin 53, TRIM72) obtained by E. coli fermentation",entry of fluorescent dyes,APAP-treated hepatocytes,reduced
same,release of LDH,APAP-treated hepatocytes,reduced
same,necrosis of hepatic tissue,[1]; exogenous MG53 administered to mg53−/− mice with injured liver tissue,substantial reduction
same,serum levels of AST,"[1]; mg53−/− mice receiving rhMG53 treatment, APAP 350 mg/kg",reduced
same,healing of liver tissue (immunofluorescent confocal imaging),"[1]; mg53−/− mice, exogenous MG53 before or after chemical-induced liver injury",improved healing
same,survival of the mg53−/− mice,"[1]; rhMG53 1 mg/kg i.p. prior to APAP 350 mg/kg, FIG. 4",improved
same,E3-ligase substrate identified,RIPK3,RIPK3
same,cell viability of hepatocytes,[2]; 10 μg/ml,increased
same,cell viability of hepatocytes,[2]; 50 μg/ml,increased
same,AST in the culture medium,[2]; H/R-treated wild type hepatocytes,dose-dependent effect of rhMG53 in the reduction
same,"liver tissue injury (necrotic tissue formation, AST level)",[3],protective activity
same,necrotic cell death (PI staining),HepG2 cells,significant reduction
same,"liver tissue injury (necrotic tissue formation, AST level)",[4],protective activity
same,necrotic injury to the liver tissue,[5]; rhMG53 1 mg/kg 12 hours after APAP 300 mg/kg i.p.,reduced
same,serum levels of AST,"[5]; rhMG53 1 mg/kg 12 hours after APAP 300 mg/kg i.p., FIG. 9",reduction
same,serum levels of AST,"[5]; rhMG53 1.0 mg/kg i.p. 30 min before 350 mg/kg APAP, FIG. 6",reduced
same,necrotic injuries to the mouse liver,"[5]; rhMG53 1.0 mg/kg i.p. 30 min before 350 mg/kg APAP, FIG. 7A, 7B",ameliorated
same,survival rate,"[5]; rhMG53 1.0 mg/kg i.p. 30 minutes before 500 mg/kg APAP, FIG. 5",increased
same,therapeutic effect as determined by the survival rate,[5]; rhMG53 1 mg/kg i.p. 1 h after APAP 500 mg/kg,most apparent
same,therapeutic effect as determined by the survival rate,[5]; rhMG53 1 mg/kg i.p. 6 hours after APAP 500 mg/kg,still evident
same,healing of liver tissue (immunofluorescent confocal imaging),"[5]; wt mice, exogenous MG53 before or after chemical-induced liver injury",improved healing
same,MLKL phosphorylation and membrane translocation,MLKL,reduces
same,protective activity against APAP-induced injury (viability),mouse hepatocytes,dose-dependent protective activity
same,protective activity against APAP-induced injury (viability),HepG2 hepatocytes,dose-dependent protective activity
Alexa647-rhMG53: rhMG53 protein conjugated with an Alexa647 fluorescent probe,fluorescent signal in hepatocytes,"[6]; 1 mg/kg intravenously prior to APAP 350 mg/kg i.p., injured hepatocytes",clearly visible
same,fluorescent signal in liver,"[6]; 1 mg/kg intravenously, untreated mouse liver (no APAP)",no Alexa647-rhMG53 signal was visible
